What all share (assay type): physicochemical
A short description of data set [1]: DSC analysis for decomposition point (thermal property). The conditions noted are these: DSC analysis of crystal. An excerpt:
As described above, the methine dyes of the present invention have main absorption maxima in the region at wavelengths of longer than 300 nm, usually, at wavelengths of around 350 to 850 nm, and have distinctly high molecular absorption coefficients (may be abbreviated as “ε”) of 1.0×10^5 or more, usually, 1.5×10^5 or more at their absorption maxima, and efficiently absorb the light in such wavelength region. […] As is well known, it is said that the decomposition point and the glass transition point of an organic compound are recognized as important indexes of their thermal stability, i.e., compounds with higher decomposition points and glass transition points tend to have a higher thermal stability. Accordingly, the methine dyes of the present invention can be quite advantageously used as light-absorption materials which absorb the light in the ultra violet and the infrared regions to shield it, or use the light energy of the above regions in various fields of, for example, information recordings, solar energy generations, electric equipments, electric communications apparatuses, optical equipments, clothes, building/bedding/decorating products, health goods, and agricultural materials. The decomposition points of the methine dyes can be determined by conventional […] (abbreviated as “DSC” herein after).
Conventional measurement of the dye for visible absorption spectrum in methanol solution as an absorption property gave a main absorption maximum at a wavelength of about 544 nm (E=1.94×10^5). ^1H-NMR Analysis of the methine dye in dimethyl sulfoxide-d^6 solution gave a chemical shift δ (ppm, TMS) at peaks of 0.15 to 0.32 (2H, m, —CH2—), 0.65 to 0.82 (2H, m, —CH2—), (6H, t, CH3—), 1.23 (6H, t, CH3—), 1.62 (6H, s, CH3—), 1.80 (6H, s, CH3—), 1.87 (6H, s, CH3—), 1.85 to 2.07 (2H, m, —CH2—), 2.70 to 2.90 (2H, m, —CH2—), 3.95 to 4.20 (8H, m, —CH2—), 6.39 (2H, d, —CH═), 6.48 (2H, d, —CH═), 7.51 (2H, t, ArH), 7.59 (2H, t, ArH), 7.61 (2H, d, ArH), 7.66 (2H, t, ArH), 7.75 (2H, d, ArH), 7.78 (2H, t, ArH), 8.01 (4H, t, ArH), 8.13 (4H, t, ArH), 8.16 (2H, d, ArH), 8.24 (2H, d, ArH), and 8.32 (2H, t, —CH═).

Data set [2] is described as follows: Solubility of methine dye in TFP. The note with it: for Solubility: dissolved in 100 ml of TFP at 20° C.; for solubility in TFP (in words): 1.6% by weight in TFP for forming a recording layer. On the procedure: For the methine dyes of the present invention as listed in Table 1, they were respectively dissolved in 100 ml of TFP at 20° C. and, as solubility, measured for the mass of each methine dye. In parallel, conventionally known related compounds represented by Chemical Formulae 65 to 67 were similarly measured for their solubilities.

Data set [3] in a line: Light tolerance of dye thin membrane under xenon lamp exposure. The note with it: thin membrane on glass substrate; 7.5 kw xenon lamp, two hours, 180 W/m^2; transmittance at absorption maximum wavelength (about 550 nm). The protocol: Any one of the methine dyes represented by Chemical Formulae 1 to 3, 8 and 36, obtained by the methods in Examples 4 to 8, was weighed by 15 mg, added to three milliliters of TFP, and dissolved by energizing with ultra sound for five minutes at ambient temperature. The resulting solution was dropped to homogeneity over either side of a polished glass substrate (5 cm×5 cm) by spin coating, and the substrate was rotated at 1,000 rμm for one minute to homogeneously apply the solution over the substrate, and dried by successively blowing hot air and cool air thereunto in this order to form a thin membrane of any one of the methine dyes of the present invention over the glass substrate.
The transmittance (T0) of the methine dyes in the form of a thin layer was measured at their absorption maximum wavelengths (about 550 nm), and a 7.5 kw xenon lamp was installed apart from the glass substrate at a prescribed distance to expose the glass substrate for two hours with an irradiation energy of 180 W/m^2 when measured on the surface of the substrate while blowing cool air thereunto. Thereafter, the transmittance (T) at each of their absorption maximum wavelengths was instantly remeasured, and the residual percentage (%) of each dye was calculated by substituting the measured transmittances T and To Formula 1. In parallel, the thin membranes formed with the related compounds represented by Chemical Formulae 65 to 68 were similarly treated as in the above and respectively measured for their transmittances at their absorption maximum wavelengths.

Regarding `CCN1C(=CC=CC2=[N+](CC)c3ccc4ccccc4c3C2(C)CCCCC2(C)C(C=CC=C3N(CC)c4ccc5ccccc5c4C3(C)Cc3ccccc3)=[N+](CC)c3ccc4ccccc4c32)C(C)(Cc2ccccc2)c2c1ccc1ccccc21.F[P-](F)(F)(F)(F)F.F[P-](F)(F)(F)(F)F` (stereo not shown) [Chemical Formula 2], the decomposition point entry in data set [1] is “about 211 °C”. Further, in data set [2], the Solubility worked out at 2.68 % by weight. In data set [3], the “Residual percentage (%) of dye” value is 66%.

On to `CCN1C(=CC=CC2=[N+](CC)c3ccc4ccccc4c3C2(C)CCCCC2(C)C(C=CC=C3N(CC)c4ccc5ccccc5c4C34CCCCC4)=[N+](CC)c3ccc4ccccc4c32)C2(CCCCC2)c2c1ccc1ccccc21.F[P-](F)(F)(F)(F)F.F[P-](F)(F)(F)(F)F` (stereo not shown) [Chemical Formula 3], for which the decomposition point result in data set [1] is “about 235 °C”. In data set [2], the Solubility is 2.47 % by weight. In addition, the “Residual percentage (%) of dye” value in data set [3] is given as 64%.

In turn, `CCN1C(=CC=CC2=[N+](CC)c3ccc4ccccc4c3C2(C)CCCCCCC2(C)C(C=CC=C3N(CC)c4ccc5ccccc5c4C3(C)C)=[N+](CC)c3ccc4ccccc4c32)C(C)(C)c2c1ccc1ccccc21.F[P-](F)(F)(F)(F)F.F[P-](F)(F)(F)(F)F` (stereo not shown) [Chemical Formula 8] had a Solubility in data set [2] of 2.58 % by weight. In addition, the “Residual percentage (%) of dye” value in data set [3] amounted to 75%.

Regarding `CN1C(=CC2=[N+](C)c3ccc4ccccc4c3C2(C)CCCCC2(C)C(C=C3Oc4ccccc4N3C)=[N+](C)c3ccc4ccccc4c32)Oc2ccccc21.[O-][Cl+3]([O-])([O-])[O-].[O-][Cl+3]([O-])([O-])[O-]` (stereo not shown) [Chemical Formula 21], the decomposition point result in data set [1] is “about 285 °C”.

Turning to `C[N+]1=C(C=CNc2ccccc2)C(C)(CCCCC2(C)C(C=CNc3ccccc3)=[N+](C)c3ccc4ccccc4c32)c2c1ccc1ccccc21.[O-][Cl+3]([O-])([O-])[O-].[O-][Cl+3]([O-])([O-])[O-]` (stereo not shown) [Chemical Formula 24], in data set [1], the decomposition point result was “about 300 °C”.

For the compound `CCN1C(=CC=CC2=[N+](C)c3ccc4ccccc4c3C2(C)Cc2ccc(CC3(C)C(C=CC=C4N(CC)c5ccc6ccccc6c5C4(C)Cc4ccccc4)=[N+](C)c4ccc5ccccc5c43)cc2)C(C)(Cc2ccccc2)c2c1ccc1ccccc21.F[P-](F)(F)(F)(F)F.F[P-](F)(F)(F)(F)F` (stereo not shown) [Chemical Formula 36], in data set [1], the decomposition point entry is “about 220 °C”. The compound further yielded a Solubility in data set [2] of 1.66 % by weight. Moreover, the “Residual percentage (%) of dye” value in data set [3] stood at 64%.

For `CCN1C(=CC=CC2=[N+](CC)c3ccc4ccccc4c3C2(C)C)C(C)(C)c2c1ccc1ccccc21` [Chemical Formula 65, reference compound], the Solubility in data set [2] is reported as 1.10 % by weight. The “Residual percentage (%) of dye” value in data set [3] was 73%.

Turning to `CCN1C(=CC=CC2=[N+](CC)c3ccc4ccccc4c3C23CCCCC3)C(C)(C)c2c1ccc1ccccc21` [Chemical Formula 66], in data set [2], the “solubility in TFP (in words)” value was “relatively low solubility in TFP” and the Solubility is given as 0.82 % by weight. Moreover, the “Residual percentage (%) of dye” value in data set [3] amounted to 58%.

In the case of `CCN1C(=CC=CC2=[N+](CCCCCC[N+]3=C(C=CC=C4N(CC)c5ccc6ccccc6c5C4(C)C)C(C)(C)c4c3ccc3ccccc43)c3ccc4ccccc4c3C2(C)C)C(C)(C)c2c1ccc1ccccc21` [Chemical Formula 67], in data set [2], the “solubility in TFP (in words)” value is given as “relatively low solubility in TFP” and the Solubility was 0.44 % by weight. In addition, the “Residual percentage (%) of dye” value in data set [3] was determined as 60%.

On to `CCN1C(=CC=CC2=[N+](CC)c3ccc4ccccc4c3C2(C)Cc2ccccc2)C(C)(Cc2ccccc2)c2c1ccc1ccccc21` (stereo not shown) [Chemical Formula 68, reference compound], for which the “Residual percentage (%) of dye” value in data set [3] was found to be 50%.

Values taken from patent US20090076278A1, “METHINE DYES AND USES OF THE SAME” (KABUSHIKI KAISHA HAYASHIBARA SEIBUTSU KAGAKU KENKYUJO, priority 2006, published 2009).
